Target: T1, human SGLT2 (Homo sapiens, UniProt P31639)
T1 construct: expressed in transfected cells
T1 sequence (P31639 1-672): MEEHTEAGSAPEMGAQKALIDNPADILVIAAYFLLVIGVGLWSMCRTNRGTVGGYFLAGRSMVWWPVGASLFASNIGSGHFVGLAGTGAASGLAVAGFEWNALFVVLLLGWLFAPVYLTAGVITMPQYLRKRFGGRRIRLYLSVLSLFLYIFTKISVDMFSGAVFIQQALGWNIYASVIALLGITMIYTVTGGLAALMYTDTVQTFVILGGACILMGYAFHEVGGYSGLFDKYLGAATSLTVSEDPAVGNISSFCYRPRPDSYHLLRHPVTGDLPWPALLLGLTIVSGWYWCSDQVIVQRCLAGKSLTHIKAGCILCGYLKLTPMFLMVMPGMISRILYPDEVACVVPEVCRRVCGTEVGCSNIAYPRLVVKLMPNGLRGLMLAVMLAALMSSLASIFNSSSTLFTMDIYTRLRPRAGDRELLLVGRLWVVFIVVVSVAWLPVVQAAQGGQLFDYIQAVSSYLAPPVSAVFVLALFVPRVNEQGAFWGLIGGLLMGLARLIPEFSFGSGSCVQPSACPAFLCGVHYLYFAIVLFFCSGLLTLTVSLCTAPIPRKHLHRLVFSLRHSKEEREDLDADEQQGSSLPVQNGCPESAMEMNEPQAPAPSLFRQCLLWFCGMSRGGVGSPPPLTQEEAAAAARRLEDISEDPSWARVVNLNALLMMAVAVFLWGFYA
Experiment: Inhibition of methyl-α-D-glucopyranoside uptake in CHO cells stably expressing human SGLT2
Type: cell-based
Details: methyl-α-D-(U-14C)glucopyranoside uptake, 37° C., 45 minutes, read-out: ICH value for the inhibition of SGLT2
Description: Assay for Evaluating Inhibition of Activity of Human Na^+-Glucose Cotransporter (SGLT1 and SGLT2)
Human SGLT2 cDNA was amplified by PCR with a cDNA library derived from human kidney (Clontech) as a template, synthetic DNA primers, and KOD+ DNA Polymerase. The amplified cDNA was inserted into pcRII-Topo vector by using a Topo TA Cloning Dual Promoter kit. E. coli competent cells (TPO10) were transformed with the plasmid vector, and then cultured in LB medium containing ampicillin (50 mg/L) to grow ampicillin-resistant clones. The plasmid vector containing human SGLT2 cDNA was purified from the clone in a standard manner. Human SGLT2 cDNA added restriction enzyme recognition sites (Xho I at 5′-end, Hind III at 3′-end) was amplified by PCR with the plasmid vector as a template, synthetic DNA primers containing an additional restriction enzyme recognition site, and KOD+ DNA Polymerase. This amplified cDNA was digested with Xho I and Hind III, and the resulting fragment was ligated into expression vector pcDNA3.1(−) digested with Xho I and Hind III by using a Rapid DNA Ligation kit. E. coli competent cells (DH5α) were transformed with the ligated expression vector and grown in ampicillin-containing LB medium. Human SGLT2 expression vector was purified from the ampicillin-resistant clone in a standard manner. […]

IC50: 12 nM
Structure (SMILES): CCc1ccc(Cc2ccc3c(c2)[C@]2(OC3)S[C@H](CO)[C@@H](O)[C@H](O)[C@H]2O)cc1 [Example 1, (1S,3′R,4′S,5′S,6′R)-6-[(4-ethylphenyl)methyl]-3′,4′,5′,6′-tetrahydro-6′-(hydroxymethyl)-spiro[isobenzofuran-1(3H),2′-[2H]thiopyran]-3′,4′,5′-triol]
